{"source": "paper PMC5601486", "about": "“Identification of 4-phenylquinolin-2(1H)-one as a specific allosteric inhibitor of Akt” (Scientific Reports, 2017)", "key": {"[1]": {"system": "RIPK2", "test": "KINOMEscan", "settings": "50000 nM", "experimental": "KINOMEscan™ selectivity screen\n(§1) The assay was perfor med at DiscoveRx Corporation according the methods published previously5. Briefly, Kinase-tagged T7 phage strains were grown in parallel in an E. coli host derived from the BL21 strain. E. coli were grown to log-phase and infected with T7 phage from a frozen stock and incubated with shaking at 32°C until lysis (90-150 minutes). The kinases were produced in HEK-293 cells and subsequently tagged with DNA for qPCR detection. Streptavidin-coated magnetic beads were treated with biotinylated small molecule ligands to generate affinity resins for kinase\n(§2) inhibitor or DMSO control was performed in polypropylene 384-well plates for 1 hr at room temperature. After wash with PBS buffer containing 0.05% Tween 20, the beads were incubated in elution buffer (PBS containing 0.05 % Tween 20 and 0.5 μM non-biotinylated affinity ligand) for 30 minutes at room temperature. The kinase concentration in the eluates was measured by qPCR."}, "[2]": {"system": "CLK3", "test": "KINOMEscan", "settings": "50000 nM", "experimental": "KINOMEscan™ selectivity screen\n(§3) Briefly, Kinase-tagged T7 phage strains were grown in parallel in an E. coli host derived from the BL21 strain. E. coli were grown to log-phase and infected with T7 phage from a frozen stock and incubated with shaking at 32°C until lysis (90-150 minutes). The kinases were produced in HEK-293 cells and subsequently tagged with DNA for qPCR detection. Streptavidin-coated magnetic beads were treated with biotinylated small molecule ligands to generate affinity resins for kinase\nas §2"}, "[3]": {"system": "T1, PFPK5(P.falciparum)", "T1 construct": "purchased DiscoveRx KINOMEscan", "test": "KINOMEscan", "type": "binding", "settings": "50000 nM"}, "[4]": {"system": "MAP4K5", "test": "KINOMEscan", "settings": "50000 nM", "experimental": "KINOMEscan™ selectivity screen\nas §1, §2"}, "[5]": {"system": "CSNK1G2", "test": "KINOMEscan", "settings": "50000 nM", "experimental": "KINOMEscan™ selectivity screen\nThe kinases were produced in HEK-293 cells and subsequently tagged with DNA for qPCR detection. Streptavidin-coated magnetic beads were treated with biotinylated small molecule ligands to generate affinity resins for kinase\nas §2"}, "[6]": {"system": "PCTK2", "test": "KINOMEscan", "settings": "50000 nM", "experimental": "KINOMEscan™ selectivity screen\nas §1, §2"}, "[7]": {"system": "LATS1", "test": "KINOMEscan", "settings": "50000 nM", "experimental": "KINOMEscan™ selectivity screen\nas §1, §2"}, "[8]": {"system": "PIK3CA(M1043I)", "test": "KINOMEscan", "settings": "50000 nM", "experimental": "KINOMEscan™ selectivity screen\nas §1, §2"}, "[9]": {"system": "KIT(D816V)", "test": "KINOMEscan", "settings": "50000 nM", "experimental": "KINOMEscan™ selectivity screen\nas §1, §2"}, "[10]": {"system": "MRCKB", "test": "KINOMEscan", "settings": "50000 nM", "experimental": "as §3, §2"}, "[11]": {"system": "EGFR(G719S)", "test": "KINOMEscan", "settings": "50000 nM", "experimental": "KINOMEscan™ selectivity screen\nas §1, §2"}, "[12]": {"system": "BRSK2", "test": "KINOMEscan", "settings": "50000 nM", "experimental": "KINOMEscan™ selectivity screen\nas §1, §2"}, "[13]": {"system": "GSK3A", "test": "KINOMEscan", "settings": "50000 nM", "experimental": "KINOMEscan™ selectivity screen\nas §3, §2"}, "[14]": {"system": "PKA", "test": "Western blot of PKA phosphorylation", "type": "cell-based, Mouse", "settings": "Neuro 2A cells", "description": "Neuro 2A cells were seeded in 12-well plates in DMEM containing 5% FBS for 24 hr.\nAfter overnight serum starvation (in 0% FBS DMEM), cells were incubated for 30 min at 37 °C with G7 or LY294002 or Torin 1 (Sigma Aldrich) at various concentrations, or DMSO control. IGF-1 was added to each well at a final concentration of 100 ng/mL. After 30-min incubation cells were washed with cold PBS and lysed with 50 µL lysis buffer containing 1% Triton X-100 and protease/phosphatase inhibitors (Cell Signaling Technology) or RIPA buffer (Santa Cruz Biotech). Samples were electrophoresed in 4–12% Bis-Tris gels (Life Technologies) at 150 V using MOPS SDS running buffer. Proteins were transferred electrophoretically to a PVDF or nitrocellulose membrane. For detection of cleaved […]\ncaspase 3 a Trans-Blot Turbo Transfer System (Bio-Rad, 25 V for 25 min) with PVDF membrane were used. […]\nanti- GAPDH (14C10) antibody (#2118) (all antibodies were from Cell Signaling Technology unless indicated, 1:1000 dilution was used) at 4°C overnight, washed three times with TBS-T, then incubated with peroxidase-conjugated secondary antibody (Sigma-Aldrich) for 1 hr at room temperature. […] Band intensity was quantitated using Kodak 1D imaging analysis software. […]"}, "[15]": {"system": "WEE1", "test": "KINOMEscan", "settings": "50000 nM", "experimental": "KINOMEscan™ selectivity screen\nas §1, §2"}, "[16]": {"system": "WNK4", "test": "KINOMEscan", "settings": "50000 nM", "experimental": "as §3, §2"}, "[17]": {"system": "NDR1", "test": "KINOMEscan", "settings": "50000 nM", "experimental": "KINOMEscan™ selectivity screen\nas §3, §2"}, "[18]": {"system": "PLK4", "test": "KINOMEscan", "settings": "50000 nM", "experimental": "KINOMEscan™ selectivity screen\nas §1, §2"}, "[19]": {"system": "NEK1", "test": "KINOMEscan", "settings": "50000 nM", "experimental": "as §3, §2"}, "[20]": {"system": "PIM1", "test": "KINOMEscan", "settings": "50000 nM", "experimental": "KINOMEscan™ selectivity screen\nas §1, §2"}, "[21]": {"system": "AXL", "test": "KINOMEscan", "settings": "50000 nM", "experimental": "KINOMEscan™ selectivity screen\nas §1, §2"}, "[22]": {"system": "ERN1", "test": "KINOMEscan", "settings": "50000 nM", "experimental": "KINOMEscan™ selectivity screen\nas §3, §2"}, "[23]": {"system": "CSF1R", "test": "KINOMEscan", "settings": "50000 nM", "experimental": "KINOMEscan™ selectivity screen\nas §1, §2"}, "[24]": {"system": "ERK5", "test": "KINOMEscan", "settings": "50000 nM", "experimental": "KINOMEscan™ selectivity screen\nas §3, §2"}, "[25]": {"system": "JNK1", "test": "KINOMEscan", "settings": "50000 nM", "experimental": "KINOMEscan™ selectivity screen\nas §1, §2"}, "[26]": {"system": "DDR1", "test": "KINOMEscan", "settings": "50000 nM", "experimental": "KINOMEscan™ selectivity screen\nas §1, §2"}, "[27]": {"system": "QSK", "test": "KINOMEscan", "settings": "50000 nM", "experimental": "KINOMEscan™ selectivity screen\nas §1, §2"}, "[28]": {"system": "ACVR2A", "test": "KINOMEscan", "settings": "50000 nM", "experimental": "KINOMEscan™ selectivity screen\nas §1, §2"}, "[29]": {"system": "MARK4", "test": "KINOMEscan", "settings": "50000 nM", "experimental": "KINOMEscan™ selectivity screen\nas §1, §2"}, "[30]": {"system": "PIP5K2B", "test": "KINOMEscan", "settings": "50000 nM", "experimental": "KINOMEscan™ selectivity screen\nas §1, §2"}, "[31]": {"system": "T2, PRP4", "T2 construct": "purchased DiscoveRx KINOMEscan", "test": "KINOMEscan", "type": "binding, human", "settings": "50000 nM"}, "[32]": {"system": "TAOK2", "test": "KINOMEscan", "settings": "50000 nM", "experimental": "KINOMEscan™ selectivity screen\nBriefly, Kinase-tagged T7 phage strains were grown in parallel in an E. coli host derived from the BL21 strain. E. coli were grown to log-phase and infected with T7 phage from a frozen stock and incubated with shaking at 32°C until lysis (90-150 minutes). The kinases were produced in HEK-293 cells and subsequently tagged with DNA for qPCR detection.\nAfter wash with PBS buffer containing 0.05% Tween 20, the beads were incubated in elution buffer (PBS containing 0.05 % Tween 20 and 0.5 μM non-biotinylated affinity ligand) for 30 minutes at room temperature. The kinase concentration in the eluates was measured by qPCR."}, "[33]": {"system": "YANK2", "test": "KINOMEscan", "settings": "50000 nM", "experimental": "KINOMEscan™ selectivity screen\nas §3, §2"}}}
{"smiles": "Oc1cc(-c2ccccc2)c2ccccc2n1", "note": "[G7, 4-phenylquinolin-2(1H)-one]", "values": [{"measurement": "Percent Control", "setting": "[1]", "value": 82, "unit": "%"}, {"measurement": "Percent Control", "setting": "[2]", "value": 92, "unit": "%"}, {"measurement": "Percent Control", "setting": "[3]", "value": 85, "unit": "%"}, {"measurement": "Percent Control", "setting": "[4]", "value": 100, "unit": "%"}, {"measurement": "Percent Control", "setting": "[5]", "value": 74, "unit": "%"}, {"measurement": "Percent Control", "setting": "[6]", "value": 99, "unit": "%"}, {"measurement": "Percent Control", "setting": "[7]", "value": 87, "unit": "%"}, {"measurement": "Percent Control", "setting": "[8]", "value": 100, "unit": "%"}, {"measurement": "Percent Control", "setting": "[9]", "value": 58, "unit": "%"}, {"measurement": "Percent Control", "setting": "[10]", "value": 84, "unit": "%"}, {"measurement": "Percent Control", "setting": "[11]", "value": 100, "unit": "%"}, {"measurement": "Percent Control", "setting": "[12]", "value": 82, "unit": "%"}, {"measurement": "Percent Control", "setting": "[13]", "value": 22, "unit": "%"}, {"measurement": "phosphorylation (activation status) of PKA", "setting": "[14]", "value": "did not alter"}, {"measurement": "Percent Control", "setting": "[15]", "value": 100, "unit": "%"}, {"measurement": "Percent Control", "setting": "[16]", "value": 88, "unit": "%"}, {"measurement": "Percent Control", "setting": "[17]", "value": 83, "unit": "%"}, {"measurement": "Percent Control", "setting": "[18]", "value": 80, "unit": "%"}, {"measurement": "Percent Control", "setting": "[19]", "value": 88, "unit": "%"}, {"measurement": "Percent Control", "setting": "[20]", "value": 49, "unit": "%"}, {"measurement": "Percent Control", "setting": "[21]", "value": 42, "unit": "%"}, {"measurement": "Percent Control", "setting": "[22]", "value": 69, "unit": "%"}, {"measurement": "Percent Control", "setting": "[23]", "value": 7.4, "unit": "%"}, {"measurement": "Percent Control", "setting": "[24]", "value": 100, "unit": "%"}, {"measurement": "Percent Control", "setting": "[25]", "value": 75, "unit": "%"}, {"measurement": "Percent Control", "setting": "[26]", "value": 84, "unit": "%"}, {"measurement": "Percent Control", "setting": "[27]", "value": 85, "unit": "%"}, {"measurement": "Percent Control", "setting": "[28]", "value": 100, "unit": "%"}, {"measurement": "Percent Control", "setting": "[29]", "value": 88, "unit": "%"}, {"measurement": "Percent Control", "setting": "[30]", "value": 100, "unit": "%"}, {"measurement": "Percent Control", "setting": "[31]", "value": 79, "unit": "%"}, {"measurement": "Percent Control", "setting": "[32]", "value": 93, "unit": "%"}, {"measurement": "Percent Control", "setting": "[33]", "value": 100, "unit": "%"}]}
